Entries after “also recorded” stand apart in the source; their conditions may differ.
Experiments:
[1] = test system: receptor; conditions: in combination with "strong" estrogens; cited from earlier work
[2] = test system: osteoporosis; conditions: official statement / text book; cited from earlier work
[3] = test system: castrated (OVX) Wistar rats; test: Hydroxyproline excretion in 24-h urine of ovariectomized rats after estriol application; type: in vivo; conditions: for Hydroxyproline content in the urine: mean, n = 8
Source text: (§1) Investigation of the osteoporotic action of estriol on ovariectomized rats
(§2) 11 week-old female Wistar rats lose a considerable proportion of their bone substance in two weeks after ovariectomy. It was to be investigated whether this effect is preventable through estriol. For this, this hormone was to be applied such that constant hormone levels are established over the whole test period. […] The assumption that estriol has insufficient activity as a partial estrogen antagonist at the bone was also to be examined as another possibility.
(§3) Female Wistar rats from the experimental animal breeders "Biomodelle GmbH", O-1291 Schonwalde (breed: Wistar) were supplied at ages from nine to ten weeks and kept under conventional conditions at a room temperature of 22° C.[…] and under a light regime (14 h light and 10 h dark) in PVC shells with fitted wire covers.
(§4) The animals received standard formulation R 13 feed and drinking water ad libitum.
(§5) At the age of 11 weeks (body weight approximately 220 g) the animals were used in the experiment.
(§6) Subcutaneous application osmotic pumps. Model: Alzet 2002, capacity of the reservoir 200 μl. Throughflow 0.5 μl/hour. Solution of the test substance in propylene glycol.
(§7) The duration of the whole experiment was 3 weeks, 1 week before castration and two weeks (15 days) after castration.
In the week prior to castration, characteristic parameters. were determined "as starting values" prior to the estrogen-specific bone degradation through ovariectomy (hydroxyproline content in the 24-h-urine, hydroxyproline content and estriol concentration in the serum).
For the determination of the hydroxyproline content in the urine, the collective urine was obtained over 24 hours. For this, the animals were individually placed once a week in diuresis cages which permitted a sufficiently clean collection of urine, separate from faeces. The hydroxyproline content was then determined in the collective urine of each individual animal.
(§8) Hydroxyproline is released during the decomposition of collagen which also accounts for a considerable proportion of the bone substance.

[4] = test system: mastocarcinomas; conditions: mastocarcinoma; induction and promotion phases; cited from earlier work
[5] = test system: femur bones; test: Trabecular proportion of the bone volume (femur histology) after ovariectomy; type: in vivo, Wistar rats
Source text: as §1, §2, §3, §4, §5, §6, §7
At the end of the experiment the animals were killed and the femur bones fixed for histological investigations according to standard methods, cut with a hard cut microtome and investigated qualitatively and quantitatively as regards morphological features.
The effect on the proportion of trabecular structures in the surface of bone sections was determined as a parameter of the osteoprotective effect of estriol.

[6] = conjugation with glucuronic acid or sulphate in the liver; cited from earlier work
[7] = test system: bones; conditions: dosage quantities of 12 mg/day oral; cited from earlier work
[8] = test system: castrated (OVX) Wistar rats; test: Hydroxyproline level in serum of ovariectomized rats after estriol application; type: in vivo; conditions: for Hydroxyproline content in the serum: mean
Source text: as §1, §2, §3, §4, §5, §6, §7
In the week prior to castration, characteristic parameters. were determined "as starting values" prior to the estrogen-specific bone degradation through ovariectomy (hydroxyproline content in the 24-h-urine, hydroxyproline content and estriol concentration in the serum). […]
as §8

[9] = test system: uterus; conditions: administered once to ovariectomized rats; cited from earlier work
[10] = OVX + D1, estriol 0.1 μg/24 hrs, day 7 after castration
[11] = OVX + D1, estriol 0.1 μg/24 hrs, day 12 after castration
[12] = OVX + D1, estriol 0.1 μg/24 hrs, day 13 after castration
[13] = OVX + D1, estriol 0.1 μg/24 hrs, day 14 after castration
[14] = OVX + D1, estriol 0.1 μg/24 hrs, day 15 after castration
[15] = OVX + D2, estriol 1.0 μg/24 hrs, day 7 after castration
[16] = OVX + D2, estriol 1.0 μg/24 hrs, day 12 after castration
[17] = OVX + D2, estriol 1.0 μg/24 hrs, day 13 after castration
[18] = OVX + D2, estriol 1.0 μg/24 hrs, day 14 after castration
[19] = OVX + D2, estriol 1.0 μg/24 hrs, day 15 after castration
[20] = OVX + D3, estriol 10.0 μg/24 hrs, day 7 after castration
[21] = OVX + D3, estriol 10.0 μg/24 hrs, day 12 after castration
[22] = OVX + D3, estriol 10.0 μg/24 hrs, day 13 after castration
[23] = OVX + D3, estriol 10.0 μg/24 hrs, day 14 after castration
[24] = OVX + D3, estriol 10.0 μg/24 hrs, day 15 after castration
[25] = OVX + D4, estriol 50.0 μg/24 hrs, day 7 after castration
[26] = OVX + D4, estriol 50.0 μg/24 hrs, day 15 after castration

## C[C@]12CC[C@@H]3c4ccc(O)cc4CC[C@H]3[C@@H]1C[C@@H](O)[C@@H]2O [estriol]
[1]
  anti-estrogen action: proved to have an anti-estrogen action
[2]
  effectiveness for osteoporosis prophylaxis: ineffectiveness; also recorded: Not effective for osteoporosis prophylaxis
[3]; OVX + D1, estriol 0.1 μg/24 hrs, day 0 after castration (starting value)
  Hydroxyproline content in the urine: 1,46 μmol/1 d
[3]; [10]
  relative change of hydroxyproline content in the urine: 56,95%
  Hydroxyproline content in the urine: 2,15 μmol/1 d
[3]; [11]
  relative change of hydroxyproline content in the urine: 84,62%
  Hydroxyproline content in the urine: 2,41 μmol/1 d
[3]; [12]
  relative change of hydroxyproline content in the urine: 79,03%
  Hydroxyproline content in the urine: 2,51 μmol/1 d
[3]; [13]
  relative change of hydroxyproline content in the urine: 59,47%
  Hydroxyproline content in the urine: 2,11 μmol/1 d
[3]; [14]
  relative change of hydroxyproline content in the urine: 40,95%
  Hydroxyproline content in the urine: 2,00 μmol/1 d
[3]; OVX + D2, estriol 1.0 μg/24 hrs, day 0 after castration (starting value)
  Hydroxyproline content in the urine: 1,63 μmol/1 d
[3]; [15]
  relative change of hydroxyproline content in the urine: 15,48%
  Hydroxyproline content in the urine: 1,94 μmol/1 d
[3]; [16]
  relative change of hydroxyproline content in the urine: 74,86%
  Hydroxyproline content in the urine: 2,97 μmol/1 d
[3]; [17]
  relative change of hydroxyproline content in the urine: 42,71%
  Hydroxyproline content in the urine: 2,40 μmol/1 d
[3]; [18]
  relative change of hydroxyproline content in the urine: 37,83%
  Hydroxyproline content in the urine: 2,31 μmol/1 d
[3]; [19]
  relative change of hydroxyproline content in the urine: 10,69%
  Hydroxyproline content in the urine: 1,83 μmol/1 d
[3]; OVX + D3, estriol 10.0 μg/24 hrs, day 0 after castration (starting value)
  Hydroxyproline content in the urine: 1,67 μmol/1 d
[3]; [20]
  relative change of hydroxyproline content in the urine: 47,88%
  Hydroxyproline content in the urine: 0,88 μmol/1 d
[3]; [21]
  relative change of hydroxyproline content in the urine: -40,47%
  Hydroxyproline content in the urine: 0,98 μmol/1 d
[3]; [22]
  relative change of hydroxyproline content in the urine: -36,63%
  Hydroxyproline content in the urine: 1,04 μmol/1 d
[3]; [23]
  relative change of hydroxyproline content in the urine: -48,91%
  Hydroxyproline content in the urine: 0,94 μmol/1 d
[3]; [24]
  relative change of hydroxyproline content in the urine: -28,45%
  Hydroxyproline content in the urine: 1,16 μmol/1 d
[3]; [25]
  relative change of hydroxyproline content in the urine: -34,52%
[3]; OVX + D4, estriol 50.0 μg/24 hrs, day 12 after castration
  relative change of hydroxyproline content in the urine: -33,26%
[3]; OVX + D4, estriol 50.0 μg/24 hrs, day 13 after castration
  relative change of hydroxyproline content in the urine: -35,04%
[3]; OVX + D4, estriol 50.0 μg/24 hrs, day 14 after castration
  relative change of hydroxyproline content in the urine: -38,21%
[3]; [26]
  relative change of hydroxyproline content in the urine: -40,43%
[3]; result in words, Table 3
  effect on increase of hydroxyproline excretion in the urine after castration: can also be alleviated through treatment with estriol
[4]
  anti-tumour effect: can prevent or suppress the development of mastocarcinomas; also recorded: proven anti-tumour effect
[5]; OVX + 0.1 microg E3/day
  % trabecular proportion of the bone volume: 16.89%
[5]; OVX + 1.0 microg E3/day
  % trabecular proportion of the bone volume: 17.46%
[5]; OVX + 10.0 microg E3/day
  % trabecular proportion of the bone volume: 24.79%
[5]; OVX + 50.0 microg E3/day
  % trabecular proportion of the bone volume: 26.64%
[5]; overall evaluation, uniform levels of active ingredient
  osteoprotective potential: has an osteoprotective potential
[5]; result in words, Table 4
  effect on decomposition of bone mass after castration: alleviated by estriol in a dose-dependent manner
[6]
  inactivation of estriol: inactivated extremely quickly
[7]
  osteoprotective effectiveness in the bones: developed no osteoprotective effectiveness in the bones
[8]; OVX + D1, estriol 0.1 μg/24 hrs, day 0 after castration (starting value), n = 8
  Hydroxyproline content in the serum: 30,55 μmol/1 l
[8]; [10]
  relative change of hydroxyproline content in the serum: 18,44%
[8]; OVX + D1, estriol 0.1 μg/24 hrs, day 7 after castration, n = 8
  Hydroxyproline content in the serum: 35,31 μmol/1 l
[8]; [14]
  relative change of hydroxyproline content in the serum: 11,66%
[8]; OVX + D1, estriol 0.1 μg/24 hrs, day 15 after castration, n = 8
  Hydroxyproline content in the serum: 33,36 μmol/1 l
[8]; OVX + D2, estriol 1.0 μg/24 hrs, day 0 after castration (starting value), n = 8
  Hydroxyproline content in the serum: 30,74 μmol/1 l
[8]; [15]
  relative change of hydroxyproline content in the serum: 8,82%
[8]; OVX + D2, estriol 1.0 μg/24 hrs, day 7 after castration, n = 8
  Hydroxyproline content in the serum: 33,20 μmol/1 l
[8]; [19]
  relative change of hydroxyproline content in the serum: 0,39%
[8]; OVX + D2, estriol 1.0 μg/24 hrs, day 15 after castration, n = 8
  Hydroxyproline content in the serum: 30,51 μmol/1 l
[8]; OVX + D3, estriol 10.0 μg/24 hrs, day 0 after castration (starting value), n = 8
  Hydroxyproline content in the serum: 28,16 μmol/1 l
[8]; [20]
  relative change of hydroxyproline content in the serum: -3,56%
[8]; OVX + D3, estriol 10.0 μg/24 hrs, day 7 after castration, n = 8
  Hydroxyproline content in the serum: 26,25 μmol/1 l
[8]; [24]
  relative change of hydroxyproline content in the serum: -23,81%
[8]; OVX + D3, estriol 10.0 μg/24 hrs, day 15 after castration, n = 8
  Hydroxyproline content in the serum: 20,90 μmol/1 l
[8]; OVX + D4, estriol 50.0 μg/24 hrs, day 0 after castration (starting value), n = 9
  Hydroxyproline content in the serum: 28,26 μmol/1 l
[8]; [25]
  relative change of hydroxyproline content in the serum: -8,87%
[8]; OVX + D4, estriol 50.0 μg/24 hrs, day 7 after castration, n = 9
  Hydroxyproline content in the serum: 25,45 μmol/1 l
[8]; [26]
  relative change of hydroxyproline content in the serum: -38,62%
[8]; OVX + D4, estriol 50.0 μg/24 hrs, day 15 after castration, n = 9
  Hydroxyproline content in the serum: 17,33 μmol/1 l
[8]; result in words, Table 2
  effect on increase of hydroxyproline in the blood after ovariectomy: this increase was suppressed through treatment with estriol in dose-dependent manner
[9]
  stimulation of uterine weights: does not significantly stimulate uterine weights

— patent US5614213A, “Use of estriol for treatment of climacteric osteoporosis” (priority 1992, dated 1997)
